Reference: patent publication US4987151A, “Triterpene derivatives cholesterol acyltransferase inhibitors and methods of using same” (The Trustees of Columbia University in the City of New York, priority 1989, dated 1991)

Assays:
rats = settings: cited from earlier work
ACAT enzyme = experiment: ACAT inhibitory activity, free hydroxyl compound versus ester admixture; type: biochemical
Procedure: The term "effective amount" as used herein is an amount sufficient to inhibit the ACAT enzyme from esterifying cholesterol and fatty acids to cholesteryl esters. The actual amount used varies depending on which compound or composition or admixture is used. For example, the free hydroxyl compound seems to have less activity than an admixture of the stearate and palmitate esters. The actual dosages may vary from about 0.1 mg/kg/day to about 50 mg/kg/day, and may be adjusted by a person of ordinary skill in the art to maximize effectiveness while avoiding side effects and toxicities.

J774 Macrophages = settings: tissue culture macrophages (J774); cited from earlier work

In the case of CCCCCCCN(Cc1ccc(CC(C)(C)C)cc1)C(=O)Nc1ccc(F)cc1F [CL 277,082], the “effect on cholesterol concentrations in plasma, liver, and aorta” value (rats) is listed as “decreasing cholesterol concentrations in plasma, liver, and aorta”.

For C[C@@H]1[C@H](O)CC[C@]2(C)[C@H]3CC=C4[C@@H]5C[C@](C)(C(=O)O)C[C@H](O)[C@]5(C)CC[C@@]4(C)[C@]3(C)CC[C@@H]12 [free hydroxyl compound], the “activity relative to admixture of the stearate and palmitate esters” value (ACAT enzyme) was “less activity”.

For CCCCCCCCCC[Si](C)(C)CCC(=O)NC(Cc1ccc(C)cc1)c1ccccc1 (stereo not drawn) [Sandoz Compound 58-035], the “effect on foam cell formation” value (J774 Macrophages) is listed as “help prevent foam cell formation”.
